Reference: patent US20060115492A1, “Pharmaceutical composition and health food comprising extract of Phellinus sp. PL3 or phellinsin a isolated from the same as an effective component for prevention and treatment of cardiovascular disease” (Korea Research Institute of Bioscience and Biotechnology, priority 2004, published 2006)

Tests used:
LDL [1] = test: Anti-oxidation to LDL by TBARS method (Cu2+-mediated LDL oxidation); assay type: biochemical, human; details: read-out: IC50 (anti-oxidant activity to LDL)
Experimental: The Phellinus sp. PL3 extract and the phellinsin A isolated from the same prepared as described in Examples were examined for their anti-oxidant activity to LDL as follows.
In the present invention, dialdehydes as an oxidative product of unsaturated fatty acids was measured by performing TBARS (thiobarbituric acid-reactive substances) method to investigate the anti-oxidant activities of Phellinus sp. PL3 extract and the phellinsin A isolated from Phellinus sp PL3.
300 mL of human plasma was centrifuged at 100,000×g for 24 hours with an ultracentrifuge to remove a very low density lipoprotein (VLDL)/chylomicron layer floated on the supernatant. The remaining solution was adjusted to 1.063 g/mL of gravity and centrifuged at 100,000×g for 24 hours to separate again 25 mL (1.5-2.5 mg protein/mL) of LDL floated on the supernatant. […]
Then, 10 μL of 0.25 mM CuSO4 was added to the resulting solution, reacted at 37° C. for 4 hours and added with 1 mL of 20% trichloroacetic acid (TCA) solution to stop the reaction. […] The resulting solution was centrifuged at 3,000 rpm for 5 min to separate supernatant and measured the absorbance at 540 nm with a UV-visible spectrophotometer. Finally, the amount of malondialdehyde (MDA) generated by the coloring reaction was determined.
In the experiment using Phellinus sp. […] PL3, the amount of malondialdehyde was quantified by using this standard curve.

LDL [2] = test: Anti-oxidant activity by monitoring conjugated dienes continuously (LDL oxidation, absorbance at 234 nm); assay type: biochemical, human; details: control lag time 44 min
Experimental: 240 μL of LDL (120 μg/mL of protein concentration) separated in Experimental Example 1 was mixed with 2,510 μL of 10 mM phosphate buffer solution and added with 10 μL of phellinsin A solution prepared in 2 kinds of concentration (2 μM and 5 μM), respectively. At this moment, the phellinsin A was utilized after dissolved in DMSO and for a negative control, only solvent was added. For a positive control, probucol was added before use.
Then, 240 μL of 0.125 mM CuSO4 was added to the resulting solution, reacted at 37° C. for 4 hours and coincidently, measured by monitoring the absorbance at 234 nm with a UV-visible spectrophotometer at 10 min intervals.

DPPH radical scavenging = assay type: biochemical; details: for Radical scavenging activity (%): 100 μM solutions in methanol; for IC50: after 35 min, read-out: IC50 (DPPH free radical scavenging)
Experimental: Phellinsin A and 1-diphenyl-2-picryl hydrazyl (DPPH) were dissolved in methanol to be adjusted to 100 μM of concentration, respectively. Then, 1 mL of phellinsin A solution was mixed with 2 mL of DPPH solution and stirred well. […]

[3] = tested on: macrophage-mediated LDL oxidation (THP-1 cells); test: Macrophage-mediated LDL oxidation (THP-1 cells, TBARS); assay type: cell-based; details: for MDA nmol/mg LDL protein: LDL + cell + Cu2+, control 210.6 ± 10.7
Experimental: Then, the resulting cells were cultivated for 3 days and activated by using macrophages sufficiently.
Phellinsin A was dissolved in DMSO and diluted in various concentrations before used in the experiment. In order to catalyze the macrophage-mediated LDL oxidation, 2μL of 0.5 mM CuSO4 was added to the phellinsin A solution. Incubation was then carried out for 24 hours at 37° C. under a humidified atmosphere containing 5% CO2.

[4] = Acute toxicity test of oral administration in mice; assay type: in vivo; details: both sexes, ICR, mouse, in vivo, po
Experimental: (§1) In order to investigate the acute toxicity of Phellinus sp. PL3 extract or phellinsin A isolated from the same according to the present invention, the experimental procedure is performed as follows.
(§2) 4-week old specific pathogens free (SPF) ICR mice were adopted in 12 of female and 12 of male mice (3 male and female mice/dose group, respectively) and raised in a breeding room under 12 L/12 D of light kept at temperature of 22±3° C. humidity of 55±10%. The experimental mice were adapted for a week before use. Animal fodder (purchased from Cheil Feed Co. Ltd., for mice and rat uses) and water were provided after sterilized and fed freely.
(§3) The Phellinus sp. PL3 extract and phellinsin A isolated from the same prepared in Examples were made to 50 mg/mL of concentration by using 0.55% Tween 80 solvent and orally administered in 0.04 mL (100 mg/kg), 0.2 mL (500 mg/kg) and 0.4 mL (1,000 mg/kg) per 20 g of body weight. […]
(§4) In addition, the experimental mice were killed, anatomized and examined on inner organs with the naked eyes in 7 days of administration. In a day interval from the 1st day, the body weights were measured to examine whether the Phellinus sp. […]

ICR mice = test: Acute toxicity test of oral administration in mice; assay type: in vivo; details: oral 100, 500 and 1,000 mg/kg once, ICR mice, 7 days
Experimental: as §1, §2, §3, §4

[5] = molecular target: T1, chitin synthase 2 of Saccharomyces cerevisiae (Saccharomyces cerevisiae, UniProt P14180); details: J. Antibiotics, 2000, 9: 903-911; cited from earlier work
T1 sequence (P14180 1-963): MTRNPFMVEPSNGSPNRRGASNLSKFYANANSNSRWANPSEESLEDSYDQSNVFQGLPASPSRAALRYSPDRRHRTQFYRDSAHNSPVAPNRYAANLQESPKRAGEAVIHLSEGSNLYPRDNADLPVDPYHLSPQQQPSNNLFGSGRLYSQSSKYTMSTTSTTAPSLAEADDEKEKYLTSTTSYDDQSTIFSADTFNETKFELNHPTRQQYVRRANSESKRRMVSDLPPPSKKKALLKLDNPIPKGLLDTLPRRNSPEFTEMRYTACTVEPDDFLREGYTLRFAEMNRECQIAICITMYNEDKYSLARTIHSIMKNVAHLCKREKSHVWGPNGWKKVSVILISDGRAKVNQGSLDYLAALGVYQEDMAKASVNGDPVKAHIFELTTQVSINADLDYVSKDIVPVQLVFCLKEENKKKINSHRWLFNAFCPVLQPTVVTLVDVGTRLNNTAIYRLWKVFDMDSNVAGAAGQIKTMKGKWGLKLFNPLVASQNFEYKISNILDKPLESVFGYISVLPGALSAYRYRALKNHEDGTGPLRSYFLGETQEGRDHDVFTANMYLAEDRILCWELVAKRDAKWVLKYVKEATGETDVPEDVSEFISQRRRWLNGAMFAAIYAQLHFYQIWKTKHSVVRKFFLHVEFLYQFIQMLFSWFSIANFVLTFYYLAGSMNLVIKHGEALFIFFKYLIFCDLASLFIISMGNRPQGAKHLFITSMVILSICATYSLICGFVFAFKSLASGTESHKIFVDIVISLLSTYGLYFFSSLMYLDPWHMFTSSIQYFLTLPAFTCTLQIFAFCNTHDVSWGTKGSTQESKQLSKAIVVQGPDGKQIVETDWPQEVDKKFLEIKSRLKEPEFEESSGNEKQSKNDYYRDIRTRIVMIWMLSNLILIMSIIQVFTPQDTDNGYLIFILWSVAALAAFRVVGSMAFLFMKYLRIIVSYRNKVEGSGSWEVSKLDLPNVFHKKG

SMILES	IC50 (LDL [1])	lag time (conjugated dienes) (LDL [2]; 2 μM)	lag time (conjugated dienes) (LDL [2]; 5 μM, monitored up to 240 min)	Radical scavenging activity (%) (DPPH radical scavenging; 5 min)	Radical scavenging activity (%) (DPPH radical scavenging; 10 min)	Radical scavenging activity (%) (DPPH radical scavenging; 30 min)	IC50 (DPPH radical scavenging)	MDA nmol/mg LDL protein ([3]; 1 μM)	MDA nmol/mg LDL protein ([3]; 2 μM)	MDA nmol/mg LDL protein ([3]; 5 μM)	MDA nmol/mg LDL protein ([3]; 10 μM)	anti-oxidant activity relative to probucol on macrophage-mediated LDL oxidation ([3]; 2-10 μM, times stronger than probucol)	LD50 at 7 days [4]	toxicity (clinical symptoms, deaths, body weight, blood tests, autopsy) (ICR mice)	inhibition of chitin synthase 2 [5]
O=C1OC(c2ccc(O)c(O)c2)C(C(=O)O)/C1=C\c1ccc(O)c(O)c1 (stereo not shown) [Phellinsin A, phellinsin A]	5.3 µM	192 min	> 240 min	55%	87%	92%	1.7 µM	167.7 ± 6.2 nmol/mg LDL protein	94.2 ± 4.7 nmol/mg LDL protein	55.9 ± 2.8 nmol/mg LDL protein	39.4 ± 0.9 nmol/mg LDL protein	2-3.7 times	≥ 1000 mg/kg	no toxicity	highly inhibit
CC(C)(Sc1cc(C(C)(C)C)c(O)c(C(C)(C)C)c1)Sc1cc(C(C)(C)C)c(O)c(C(C)(C)C)c1 [Probucol, probucol, reference compound]		63 min	70 min					209.7 ± 1.7 nmol/mg LDL protein	199.1 ± 10.7 nmol/mg LDL protein	157.4 ± 2.4 nmol/mg LDL protein	145.5 ± 3.9 nmol/mg LDL protein				
Cc1c(C)c2c(c(C)c1O)CCC(C)(C(=O)O)O2 (stereo not shown) [trolox, reference compound]							18.6 µM								
